The values that follow come from US11939324B2, “Compounds for the treatment of epilepsy, neurodegenerative disorders and other CNS disorders” (reMYND N.V., priority 2017, dated 2024).

Assay [1] concerns primary rat hippocampal neurons. Kind of assay: Ex-vivo inhibition of oligomeric amyloid beta (ADDL) toxicity in primary neurons. Format: cell-based. As to conditions: 100 ng/mL, 1000 nM ADDL, 24 h, FIG. 4. The method, then:
An exemplary compound of this invention was tested for its ability to inhibit toxicity elicited by oligomeric amyloid beta (Aβo). Neurons from rat embryos were harvested and cultured using standard methods (such as used in Schlager et al., 2014. Cell reports, 8(5), pp. 1248-56.). Differentiated neurons were challenged with Apo and viability was quantified.
At day in-vitro 19 days after isolation primary hippocampal neurons were transfected with Marcks-GFP in order to visualize the neurons with fluorescence microscopy.
ADDL (Abeta-derived diffusible ligands) preparation (representing Aβo) was done according to Klein (Klein, 2002. Neurochemistry international, 41(5), pp. 345-52.). Abeta 1-42 was purchased from AnaSpec Inc. and dissolved in HFIP to homogenize the peptide. HFIP was then evaporated in a speedvac and Abeta film was dried at −20° C. overnight over desiccant. Abeta film was then resolubilised in 100% DMSO and further diluted (1/25) in Ham's F12 medium. […]
The solution was centrifuged at 14.000×g for 10 min at 4° C. and supernatants were transferred to fresh tubes and protein concentration determined by NanoDrop®.
At day in-vitro 21 primary rat hippocampal neurons were treated with equal volume of Blank/ADDL solution amounting to 0 and 1000 nM ADDL. […] Viability was assessed using the Live-Dead assay from Thermo Fisher Catalog number: L3224. […]

The subject of assay [2] is VGCC. The experiment in a line: Ex-vivo inhibition of VGCC activity: KCl-induced Ca2+ influx in primary neurons (Fura2). Format: cell-based. As to conditions: 1.5 μm compound, 45 mM KCl, primary neurons from mouse embryos, FIG. 5, p<0.0001. The method, then:
Compound 6 was tested for its ability to inhibit VGCC activity in primary neurons. Neurons from mouse embryos were harvested and cultured using standard methods (such as used in Schlager et al., 2014. Cell reports, 8(5), pp. 1248-56). To stimulate VGCC activity, neurons were depolarized using 45 mM KCl and incubated with vehicle or compound at a concentration of 1.5 μm. Calcium influx was measured using fluorescent cytosolic Ca^2+ detection reagent Fura2.
Changes in cytosolic Ca^2+ concentrations were measured after loading the cells with Fura-2 AM (Sigma-Aldrich), a cell permeable fluorescent probe for Ca^2+. Briefly, Fura-2-AM was dissolved in DMSO plus 20% Pluronic Acid (F-127) (Invitrogen) in a 1:1 ratio and diluted in medium to a final concentration of 0.5 μM. […] Next, changes in cytosolic calcium were measured using a FlexStation 3 microplate reader (Molecular Devices) and quantified ratiometric, by calculating changes in the amount of cytosolic Ca^2+ bound Fura-2 (fluorescence intensity at 340 nm) relative to the amount of Ca^2+ unbound Fura-2 (fluorescence intensity at 380 nm). […]
Compounds were tested at […] for their ability to inhibit Ca^2+ influx in primary neurons (FIG. 5) as described in Example 14. […] The percentage (%) inhibition of Ca^2+ influx relative to vehicle treated neurons was calculated.

Assay [3] deals with Transgenic human APP mice. The experiment in a line: Morris Water Maze cognition test in transgenic APP mice. It is filed as in vivo. Conditions: 20 mg/kg subcutaneously daily for 8 weeks, versus vehicle. The method, then:
P-value refers to the treatment of transgenic APP mice with exemplary Compound 6 versus vehicle.
Transgenic human of 4 months of age APP mice (THE JOURNAL OF BIOLOGICAL […] Vol. 274, No. 10, Issue of March 5, pp. 6483-6492, 1999) were treated subcutaneously, daily for 8 weeks with Compound 6 at 20 mg/kg. Cognition was assessed using the Morris Water Maze test. […] After the learning phase a probe test was conducted in which the platform was removed from the water bath to evaluate the spatial memory of the location of the platform.
Both indices indicate that compound treated mice have improved cognitive performance almost identical to wild type controls compared to vehicle treated mice.

Assay [4] has as its system M17-TAU P301L cells. Kind of assay: Cytosolic calcium (Fura-2) in M17-TAU P301L cell model of calcium dyshomeostasis. Format: cell-based. As to conditions: Homo sapiens, Fura-2 340/380 nm ratio, read-out: EC50 value of lowering cytosolic Ca^2+. On the procedure:
Cystosic calcium was measured by loading the cells with a medium containing Fura-2 AM (Sigma-Aldrich), a cell permeable fluorescent probe for Ca^2+. Fura-2-AM was dissolved in DMSO plus 20% Pluronic Acid (F-127) (Invitrogen) in a 1:1 ratio and diluted in medium to a final concentration of 0.5 μM. To this loading medium probenecid (Sigma-Aldrich) was added to a final concentration of 2.5 mM. Then, culture medium was replaced by loading medium and after incubation for 1 hour at 37° C. cells were washed twice and replaced with HBSS (Gibco) supplemented with 0.2% FBS and 0.02M HEPES. Next, changes in cytosolic calcium were measured using a FlexStation 3 microplate reader (Molecular Devices) and quantified ratiometric, by calculating changes in the amount of cytosolic Ca^2+ bound Fura-2 (fluorescence intensity at 340 nm) relative to the amount of Ca^2+ unbound Fura-2 (fluorescence intensity at 380 nm). Data was processed in SoftMax Pro 5.4.6 software (Molecular Devices).
In addition compounds were tested to lower the elevated cytosolic calcium levels. In the presence of the compounds these cytosolic calcium levels were decreased.
Compounds were tested to lower the elevated cytosolic Ca^2+ levels in the cell model of calcium dyshomeostasis (FIG. 1B) as described in example 10.
Exemplary compounds of the present invention are shown in Table 2, with their chemical structure and their EC50 value of lowering cytosolic Ca^2+ (expressed in μg/ml).

As for `O=C(NCCc1c[nH]c2ccc(F)cc12)c1cc(Cc2cc(F)ccc2F)on1` [Compound 6], the “neuronal viability after Aβo challenge” value in assay [1] is on record as “strongly rescued”. Also, the “Ca^2+ influx upon KCl depolarization” value in assay [2] is on record as “significantly reduced”. Moreover, the “search path during training phase of Morris Water Maze” value in assay [3] (FIG. 7A) is “reduced search path”. The “annulus crossing index score in probe test” value in assay [3] (FIG. 7B) is on record as “higher annulus crossing index score”. For the same compound, the EC50 – broadly, the concentration giving half of the maximal effect – in assay [4] worked out at 2.4 ng/mL.
